Reference: US8927717B1, “Thiochromeno[2,3-c]quinolin-12-one derivatives, preparation method and application thereof” (National Defense Medical Center, priority 2014, dated 2015)

Experiments:
Type in all cases: cell-based
[1] = system: CCRF-CEM; settings: CCRF-CEM
[2] = system: HL-60(TB); settings: HL-60(TB); 10^−5 molar
[3] = system: K-562; settings: K-562
[4] = system: MOLT-4; settings: MOLT-4
[5] = system: RPMI-8226; settings: RPMI-8226
[6] = system: A549/ATCC; settings: A549/ATCC
[7] = system: HOP-62; settings: HOP-62
[8] = system: NCI-H226; settings: NCI-H226
[9] = system: NCI-H23; settings: NCI-H23
[10] = system: NCI-H460; settings: NCI-H460
[11] = system: NCI-H522; settings: NCI-H522
[12] = system: COLO 205; settings: COLO 205
[13] = system: HT29; settings: HT29
[14] = system: KM12; assay: cells; settings: KM12
[15] = system: SF-268; settings: SF-268
[16] = system: SNB-19; settings: SNB-19
[17] = system: SNB-75; settings: SNB-75
[18] = system: U251; settings: U251, five dose
[19] = system: LOX IMVI; settings: LOX IMVI, five dose
[20] = system: MALME-3M; settings: MALME-3M
[21] = system: MDA-MB-435; settings: MDA-MB-435
[22] = system: SK-MEL-28; settings: SK-MEL-28
[23] = system: SK-MEL-5; settings: SK-MEL-5
[24] = system: UACC-62; settings: UACC-62
[25] = system: OVCAR-5; settings: OVCAR-5
[26] = system: OVCAR-8; settings: OVCAR-8
[27] = system: SK-OV-3; settings: SK-OV-3
[28] = system: 786-0; settings: 786-0
[29] = system: A498; settings: A498
[30] = system: RXF 393; settings: RXF 393; 10^−5 molar
[31] = system: TK-10; settings: TK-10
[32] = system: UO-31; settings: UO-31
[33] = system: PC-3; settings: PC-3
[34] = system: DU-145; settings: DU-145
[35] = system: MCF7; settings: MCF7
[36] = system: MDA-MB-231/ATCC; settings: MDA-MB-231/ATCC
[37] = system: HS 578T; settings: HS 578T
[38] = system: BT-549; settings: BT-549
[39] = system: 60 cancer cell lines; assay: NCI 60-cell screen, SRB, whole panel (mean, delta, range)
[40] = Homo sapiens, five dose, read-out: LC50 (the source's name)

`O=c1c2cc(Cl)ccc2sc2c(NCc3ccccc3)nc3ccccc3c12` [Compound N25, 6-(Benzylamino)-10-chloro-12H-thiochromeno[2,3-c]quinolin-12-one] was tested, and the Growth percent ([1]; 10^−5 molar) was 102.34%, the TGI ([1]; five dose) was greater than 100 µM and the GI50 ([1]; Homo sapiens, five dose) was greater than 100 µM. The CC50 [1, 40] was greater than 100 µM, the Growth percent [2] was 98.82% and the GI50 ([3]; Homo sapiens, K562, five dose) was greater than 100 µM. The CC50 ([3]; Homo sapiens, K562, five dose, read-out: LC50 (the source's name)) was greater than 100 µM, the Growth percent ([3]; 10^−5 molar) was 90.61% and the TGI ([3]; five dose) was greater than 100 µM. For the same molecule, the GI50 ([4]; Homo sapiens, five dose) was greater than 100 µM, the CC50 [4, 40] was greater than 100 µM and the Growth percent ([4]; 10^−5 molar) was 92.42%. For the same molecule, the TGI ([4]; five dose) was greater than 100 µM, the GI50 ([5]; Homo sapiens, five dose) was greater than 100 µM and the CC50 [5, 40] was greater than 100 µM. It also gave a Growth percent ([5]; 10^−5 molar) of 88.54%, a TGI ([5]; five dose) greater than 100 µM and a Growth percent ([6]; 10^−5 molar) of 68.33%. For the same molecule, the TGI ([6]; five dose) was greater than 100 µM, the GI50 ([6]; Homo sapiens, five dose) was 14.4 µM and the LC50 ([6]; Homo sapiens, five dose) was greater than 100 µM. It also gave a Growth percent ([7]; 10^−5 molar) of 66.53%, a TGI ([7]; five dose) of 5.92 µM and a GI50 ([7]; Homo sapiens, five dose) of 2430 nM. It also gave an LC50 (lethal concentration 50) ([7]; Homo sapiens, five dose) of 27.7 µM, a GI50 ([8]; Homo sapiens, five dose) of 1840 nM and an LC50 (concentration giving 50% net cell kill) ([8]; Homo sapiens, five dose) greater than 100 µM. It also gave a Growth percent ([8]; 10^−5 molar) of 79.35%, a GI50 ([9]; Homo sapiens, five dose) of 15.2 µM and an LC50 (lethal concentration 50%) ([9]; Homo sapiens, five dose) greater than 100 µM. For the same molecule, the Growth percent ([9]; 10^−5 molar) was 74.37%, the TGI ([9]; five dose) was greater than 100 µM and the GI50 ([10]; Homo sapiens, five dose) was 5 µM. The LC50 ([10]; Homo sapiens, five dose) was greater than 100 µM, the Growth percent ([10]; 10^−5 molar) was 64.41% and the TGI ([10]; five dose) was greater than 100 µM. It also gave a GI50 ([11]; Homo sapiens, five dose) of 25.3 µM, an LC50 (concentration causing 50% net cell kill) ([11]; Homo sapiens, five dose) greater than 100 µM and a Growth percent ([11]; 10^−5 molar) of 75.71%. It also gave a TGI ([11]; five dose) greater than 100 µM, a Growth percent ([12]; 10^−5 molar) of 80.79% and a TGI ([12]; five dose) greater than 100 µM. It also gave an LC50 ([12]; Homo sapiens, five dose) greater than 100 µM, a Growth percent ([13]; 10^−5 molar) of 77.16% and a TGI ([13]; five dose) greater than 100 µM. It also gave an LC50 (concentration killing 50% of cells) ([13]; Homo sapiens, HT-29, five dose) greater than 100 µM, a GI50 ([14]; Homo sapiens, five dose) of 48.3 µM and an LC50 ([14]; Homo sapiens, five dose) greater than 100 µM. For the same molecule, the Growth percent ([14]; 10^−5 molar) was 80.34%, the TGI ([14]; five dose) was greater than 100 µM and the GI50 ([15]; Homo sapiens, five dose) was 13.8 µM. The CC50 [15, 40] was greater than 100 µM, the Growth percent ([15]; 10^−5 molar) was 73.68% and the TGI ([15]; five dose) was greater than 100 µM. The GI50 ([16]; Homo sapiens, five dose) was 8.56 µM, the LC50 (concentration killing 50% of cells) ([16]; Homo sapiens, five dose) was greater than 100 µM and the Growth percent ([16]; 10^−5 molar) was 102.93%. For the same molecule, the TGI ([16]; five dose) was greater than 100 µM, the GI50 ([17]; Homo sapiens, five dose) was 1450 nM and the LC50 ([17]; Homo sapiens, five dose) was 9.91 µM. For the same molecule, the Growth percent ([17]; 10^−5 molar) was 14.83%, the TGI ([17]; five dose) was 3.78 µM and the GI50 ([18]; Homo sapiens, U-251) was 4.41 µM. The LC50 ([18]; Homo sapiens, U-251) was greater than 100 µM, the TGI [18] was 25.10 µM and the GI50 ([19]; Homo sapiens) was greater than 100 µM. For the same molecule, the LC50 ([19]; Homo sapiens) was greater than 100 µM, the TGI [19] was greater than 100 µM and the GI50 ([20]; Homo sapiens, five dose) was greater than 100 µM. It also gave an LC50 ([20]; Homo sapiens, five dose) greater than 100 µM, a Growth percent ([20]; 10^−5 molar) of 77.59% and a TGI ([20]; five dose) greater than 100 µM. For the same molecule, the GI50 ([21]; Homo sapiens, five dose) was greater than 100 µM, the CC50 [21, 40] was greater than 100 µM and the Growth percent ([21]; 10^−5 molar) was 89.58%. It also gave a TGI ([21]; five dose) greater than 100 µM, an LC50 ([22]; Homo sapiens, five dose) greater than 100 µM and a Growth percent ([22]; 10^−5 molar) of 84.20%. The TGI ([22]; five dose) was greater than 100 µM, the GI50 ([23]; Homo sapiens, five dose) was 4.23 µM and the LC50 ([23]; Homo sapiens, five dose) was greater than 100 µM. It also gave a Growth percent ([23]; 10^−5 molar) of 92.81%, a TGI ([23]; five dose) greater than 100 µM and a GI50 ([24]; Homo sapiens, five dose) of 16.9 µM. The CC50 [24, 40] was greater than 100 µM, the Growth percent ([24]; 10^−5 molar) was 89.20% and the TGI ([24]; five dose) was greater than 100 µM. For the same molecule, the GI50 ([25]; Homo sapiens, five dose) was greater than 100 µM, the CC50 [25, 40] was greater than 100 µM and the Growth percent ([25]; 10^−5 molar) was 91.27%. It also gave a TGI ([25]; five dose) greater than 100 µM, a GI50 ([26]; Homo sapiens, five dose) of 7.75 µM and a CC50 [26, 40] greater than 100 µM. The Growth percent ([26]; 10^−5 molar) was 68.33%, the TGI ([26]; five dose) was greater than 100 µM and the GI50 ([27]; Homo sapiens, five dose) was 3.56 µM. For the same molecule, the CC50 [27, 40] was greater than 100 µM, the Growth percent ([27]; 10^−5 molar) was 36.71% and the TGI ([27]; five dose) was 13.90 µM. It also gave a Growth percent ([28]; 10^−5 molar) of 72.48%, a TGI ([28]; five dose) of 48.70 µM and a GI50 ([28]; Homo sapiens, five dose) of 9.55 µM. It also gave a CC50 [28, 40] greater than 100 µM, a Growth percent ([29]; 10^−5 molar) of 86.46% and a TGI ([29]; five dose) of 39.20 µM. It also gave a GI50 ([29]; Homo sapiens, five dose) of 8.05 µM, a CC50 [29, 40] greater than 100 µM and a Growth percent [30] of 71.08%. It also gave a GI50 ([31]; Homo sapiens, five dose) of 5.02 µM, a CC50 [31, 40] greater than 100 µM and a Growth percent ([31]; 10^−5 molar) of 75.80%. It also gave a TGI ([31]; five dose) of 22.30 µM, a GI50 ([32]; Homo sapiens, five dose) of 57.8 µM and a CC50 [32, 40] greater than 100 µM. For the same molecule, the Growth percent ([32]; 10^−5 molar) was 65.31%, the TGI ([32]; five dose) was greater than 100 µM and the GI50 ([33]; Homo sapiens, five dose) was 56.9 µM. For the same molecule, the CC50 [33, 40] was greater than 100 µM, the Growth percent ([33]; 10^−5 molar) was 72.70% and the TGI ([33]; five dose) was greater than 100 µM. It also gave a Growth percent ([34]; 10^−5 molar) of 74.80%, a TGI ([34]; five dose) greater than 100 µM and a GI50 ([34]; Homo sapiens, five dose) of 5.5 µM. For the same molecule, the CC50 [34, 40] was greater than 100 µM, the GI50 ([35]; Homo sapiens, five dose) was 40 nM and the CC50 [35, 40] was greater than 100 µM. For the same molecule, the Growth percent ([35]; 10^−5 molar) was 16.01%, the TGI ([35]; five dose) was 18.60 µM and the GI50 ([36]; Homo sapiens, five dose) was 2360 nM. For the same molecule, the CC50 [36, 40] was greater than 100 µM, the Growth percent ([36]; 10^−5 molar) was 32.67% and the TGI ([36]; five dose) was 34.80 µM. For the same molecule, the Growth percent ([37]; 10^−5 molar) was 34.73%, the TGI ([37]; five dose) was 21.20 µM and the GI50 ([37]; Homo sapiens, five dose) was 2940 nM. The CC50 [37, 40] was greater than 100 µM, the Growth percent ([38]; 10^−5 molar) was 97.19% and the TGI ([38]; five dose) was greater than 100 µM. The GI50 ([38]; Homo sapiens, five dose) was 20.5 µM, the CC50 [38, 40] was greater than 100 µM and the GI50 ([39]; 60 cell, mean over panel, five dose) was 11.2 µM. For the same molecule, the CC50 ([39]; 60 cell, mean over panel, five dose, read-out: LC50, Mean) was 91.2 µM, the “Growth percent, Delta” value ([39]; delta over panel, 10^−5 molar) was 81.80% and the “Growth percent, Mean” value ([39]; mean over panel, 10^−5 molar) was 71.97%. For the same molecule, the “TGI, Mean” value ([39]; mean over panel, five dose) was 53.70 µM and the “Growth percent, Range” value ([39]; range over panel, 10^−5 molar) was 112.76%.
